Results published in patent US20110076293A1, “TRIPTOLIDE DERIVATIVES FOR MODULATION OF APOPTOSIS AND IMMUNOSUPPRESSION” (priority 2002, published 2011).
Read-outs that look alike come from different tables or passages of the source.

Legend:
[1] = system: Jurkat human T lymphocyte cell line; experiment: Apoptosis assay (Annexin V) of compounds incubated with human serum
Procedure: (§1) Compounds of formula I, as shown in Table 1 above and in the Examples, were assayed for their capacity to induce apoptosis in cells from the Jurkat human T lymphocyte cell line, after incubation with pooled human serum for varying periods of time at 37° C. (see Example 19). An ester prodrug, triptolide-14-succinate, designated PG490-88, was included for comparison. The extent of conversion to triptolide after such incubation was also independently determined by HPLC analysis.
The ED50 values (column 3) are calculated directly from the data in each experiment, and the % conversion values (column 4) are calculated as percent of the ED50 value produced by triptolide, designated PG490, incubated in the same plasma (i.e. in the same experiment).
A. Incubation of compounds with human serum. Pooled human serum was stored in aliquots at −80° C. Test compounds were added at 20 mM to thawed human serum in 1.5 ml microfuge tubes and incubated at 37° C. in a water bath for varying periods of time. The test samples were placed on ice until dilution for the bioassay. Controls consisted of the compounds incubated in complete tissue culture medium (RPMI 1640 medium plus 5% heat-inactivated fetal calf serum, 1% HEPES, 1% pen/strep, 1% glutamine) rather than human serum.
B. Apoptosis assay of compounds incubated with human serum. Test samples were diluted to 1 mM in complete tissue culture medium. Aliquots were placed in microculture plates and serial dilutions were prepared so that the final concentration would encompass the range of 1 to 10,000 nM with half-log increments. Cells from an exponentially expanding culture of the Jurkat human T lymphocyte cell line (#TIB-152 obtained from American Type Culture Collection, Manassas, Va.) were harvested, washed once by centrifugation and dilution in complete tissue culture medium, and diluted to a concentration of 1×10^6 cells/ml. A volume of 100 μl of Jurkat cells (1×10^5 cells) was added to wells containing 100 μl of the diluted compounds, and the plates were incubated at 37° C. in a 5% CO2 incubator. After 24 hours, the plates were centrifuged to pellet the cells, and the cells were washed twice with 2% heat-inactivated fetal calf serum in PBS. To each well, 500 ul of binding buffer was added according to the Annexin V assay procedure (BioVision, Inc., Mountain View, Calif.). Next, 5 μl of the fluorescein isothiocyanate (FITC) conjugate of Annexin V (BioVision, Inc.) was added to each well, followed by 5 minutes of incubation in the dark. In some assays, propidium iodide (BioVision, Inc.) was added at this stage to check for necrotic cells. The contents of the wells were individually transferred into test tubes, and apoptosis was analyzed using a FACSCalibur flow cytometer (BD Immunocytometry Systems, San Jose, Calif.). Cells positive for Annexin V binding were considered to be apoptotic, and the data were calculated as percent apoptotic cells.
(§2) C. Comparison of bioactivities after incubation of compounds in human serum. The data were plotted as the concentration of compound incubated in serum versus percent apoptotic cells. The concentration of compound inducing 50% apoptosis (ED50) was calculated from these dose response curves. […] This percentage conversion was used to compare the bioactivity of various compounds after incubation in human serum.

in vitro = details: for half-life: human, plasma
Procedure: as §1
Prodrug conversions to triptolide as determined independently by HPLC are given in […].

[2] = system: IL-2 production in Jurkat human T lymphocyte cells; experiment: IL-2 production assay for activity of compounds incubated with human serum; details: for IC50: IL-2 production in Jurkat cells after incubation with pooled human serum for 48 hours at 37° C.; for Conversion (%): percent of the IC50 value produced by triptolide (PG490) in the same experiment, human serum 48 hours
Procedure: Several compounds of formula I were analyzed for their capacity to inhibit IL-2 production in Jurkat human T lymphocyte cells, after incubation with pooled human serum for 48 hours at 37° C. (see Example 20). An ester prodrug, triptolide-14-succinate, designated PG490-88, was included for comparison.
The IC50 values (column 1) are calculated directly from the data in each experiment. The % conversion values (column 2) are calculated as the percent of the IC50 value produced by triptolide, designated PG490, incubated in the same plasma (i.e. in the same experiment).
A. IL-2 production assay for activity of compounds incubated with human serum. Test samples were diluted to 1 mM in complete tissue culture medium. […] Cells from an exponentially expanding culture of the Jurkat human T lymphocyte cell line (#TIB-152 obtained from American Type Culture Collection, Manassas, Va.) were harvested, washed once by centrifugation and dilution in complete tissue culture medium, and diluted to a concentration of 2×10^6 cells/ml. A volume of 50 μl of Jurkat cells (1×10^5 cells) was added to wells containing 100 μl of the diluted compounds, 50 μl of PMA (10 ng/ml) was added to each well, and the plates were incubated at 37° C. in a 5% CO2 incubator. After 24 hours, the plates were centrifuged to pellet the cells, 150 μl of supernatant was removed from each well, and the samples were stored at −20° C. The stored supernatants were analyzed for human IL-2 concentration using the Luminex 100 (Luminex Corporation, Austin, Tex.), Luminex microspheres coupled with anti-IL-2 capture antibody, and fluorochrome-coupled anti-IL-2 detection antibody. The data were expressed as ng/ml of IL-2.
as §2, with “B.” for “C.”, “IL-2 concentration.” for “percent apoptotic cells.”, “inducing a” for “inducing”, “decrease in the IL-2 concentration (IC50)” for “apoptosis (ED50)”

[3] = incubation time in human serum 48 hours
[4] = incubation time in human serum 1 hour

SMILES | Conversion, as relative ED50 compared to triptolide (%) [1, 3] [%] | max. conversion at 48 hr in human plasma by HPLC (in vitro; incomplete conversion to triptolide, 48 hr incubation) [%] | IC50 ([2]; Homo sapiens, Jurkat, 48 h) [nM] | Conversion (%) [2] [%] | EC50 ([1]; Homo sapiens, Jurkat, 1 h, read-out: ED50 (nM) in apoptosis assay after incubation with serum, incubation time in human serum 1 hour, 37° C.) [nM] | EC50 ([1]; Homo sapiens, Jurkat, 48 h, read-out: ED50 (nM) in apoptosis assay after incubation with serum, incubation time in human serum 48 hours, 37° C.) [nM] | Conversion, as relative ED50 compared to triptolide (%) [1, 4] [%] | half-life (in vitro) [min] | IC50 [2] [nM] | EC50 ([1]; read-out: ED50 (nM) in apoptosis assay after incubation with serum, incubation time in human serum 1 hour, 37° C.) [nM] | EC50 ([1]; Homo sapiens, Jurkat, 0.5 h, read-out: ED50 (nM) in apoptosis assay after incubation with serum, incubation time in human serum 0.5 hours, 37° C.) [nM] | Conversion, as relative ED50 compared to triptolide (%) ([1]; incubation time in human serum 0.5 hours)
CC(C)[C@]12O[C@H]1[C@@H]1O[C@]13[C@]1(O[C@H]1C[C@H]1C4=C(CC[C@@]13C)C(=O)OC4)[C@@H]2OC(=O)OCC(=O)O [PG687, Triptolide 14-Hydroxycarbonylmethyl Carbonate] | 6 | 10 | 61 | 2 | – | – | – | – | – | – | – | –
CC(C)[C@]12O[C@H]1[C@@H]1O[C@]13[C@]1(O[C@H]1C[C@H]1C4=C(CC[C@@]13C)C(=O)OC4)[C@@H]2OC(=O)OCCN(C)C [PG682, Triptolide 14-Dimethylaminoethyl Carbonate] | 146 | – | – | 78 | 66 | 32 | 76 | 17 | 23 | – | – | –
CC(C)[C@]12O[C@H]1[C@@H]1O[C@]13[C@]1(O[C@H]1C[C@H]1C4=C(CC[C@@]13C)C(=O)OC4)[C@@H]2OC(=O)OCCN(C)C.Cc1ccc(S(=O)(=O)O)cc1 [PG682PTSA, p-Toluenesulfonate Salt of Triptolide 14-Dimethylaminoethyl Carbonate] | – | – | – | 97 | – | – | 89 | 17 | 2 | 57 | – | –
CCOCCOC(=O)O[C@@H]1[C@@]2(C(C)C)O[C@H]2[C@@H]2O[C@]23[C@]12O[C@H]2C[C@H]1C2=C(CC[C@@]13C)C(=O)OC2 [PG679, Triptolide 14-Ethoxyethyl Carbonate] | – | – | 12 | 11 | – | – | – | 11 | – | – | 39 | 128
